# From paper PMC12593409, “Heterochiral and Heterotypic Self-Assembly of Intrinsically Disordered Peptides Confers Peptide Supercoils with Exceptional Proteolytic Stability” (Journal of the American Chemical Society, 2025)
# Where two headings read alike, the source gives them in different places. Non-standard residues stand in square brackets, D forms with d. Residues, ends and D or L forms follow the SMILES beside them. *: point of attachment. Acetyl(1-pyrenyl) = O=C(Cc1ccc2ccc3cccc4ccc1c2c34)*; d(pY) = N[C@H](Cc1ccc(OP(=O)(O)O)cc1)C(=O)O; pY = N[C@@H](Cc1ccc(OP(=O)(O)O)cc1)C(=O)O
# Columns and labels:
# [1] = tested on: alkaline phosphatase (ALP); experiment: in vitro; settings: alkaline phosphatase (ALP, 1 U/mL)
# Description: (§1) (D) Kinetics of ALP-mediated dephosphorylation under similar conditions using 1 U/mL ALP.
# (§2) To further validate the structural hypothesis, we performed enzymatic assays using ALP, which removes phosphate groups from both D- and L-tyrosines and has been widely used to explore enzyme-instructed self-assembly (EISA). , This setup isolates Pyn-EEEEEpY as the reactive component, allowing us to assess the impact of coassembly with Pyn-KKKKKK on dephosphorylation kinetics. Using the same protocol as the protease experiments, we measured the rate of dephosphorylation for Pyn-EEEEEpY monomers and their homo- and heterochiral mixtures with two equivalents of Pyn-KKKKKK (Figure S54 and Table S2).
# [2] = molecular target: proteinase K (Parengyodontium album, UniProt P06873); experiment: Proteolytic stability against proteinase K, followed by LC/MS
# Description: At designated time points, we quenched the reactions and analyzed them by LC/MS (Figures S34, S52–S53, and Table S1).
# Proteinase K Treatment: To 200 µL solutions containing peptides 1, 2, 3, 4, and their mixtures (1/2, 1/4, 3/2, 3/4) in double-distilled water, 2 µL of a 100 mg/mL proteinase K stock solution was added to achieve a final concentration of 1 mg/mL. The reactions were incubated at 37 °C. For controls, 40 µL aliquots were withdrawn from each solution prior […]
# were rapidly frozen in liquid nitrogen to stop the reaction. Samp les were then lyophilized at −80 °C, reconstituted in 0.1% TFA in H2O/acetonitrile (1:1 v/v), filtered, and analyzed […]
# LC/MS analysis was performed with solvent A (water + 0.1% formic acid) and solvent B (acetonitrile + 0.1% formic acid) with a gradient program using the following separation […]
# 13.1 min 95%A, 5%B; 14 min 95%A, 5%B. The mass spectrometer was operated in positive ion mode, scanning a range of 50 –3000 m/z.
# [3] = tested on: alkaline phosphatase (ALP); settings: 1 U/mL ALP, 37 °C, neutral pH, monomeric peptide, LC/MS
# Description: as §1, §2
# Chain of proteinase K (P06873 106-384): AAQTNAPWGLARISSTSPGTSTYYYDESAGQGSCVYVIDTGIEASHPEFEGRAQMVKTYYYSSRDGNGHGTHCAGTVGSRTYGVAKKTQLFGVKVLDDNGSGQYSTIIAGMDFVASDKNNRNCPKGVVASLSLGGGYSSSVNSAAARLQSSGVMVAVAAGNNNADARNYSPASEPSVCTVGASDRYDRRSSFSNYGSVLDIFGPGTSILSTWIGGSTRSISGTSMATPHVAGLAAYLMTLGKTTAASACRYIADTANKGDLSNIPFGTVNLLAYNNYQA
molecule,measurement,setting,value
"O=C(O)CC[C@H](NC(=O)Cc1ccc2ccc3cccc4ccc1c2c34)C(=O)N[C@@H](CCC(=O)O)C(=O)N[C@@H](CCC(=O)O)C(=O)N[C@@H](CCC(=O)O)C(=O)N[C@@H](CCC(=O)O)C(=O)N[C@@H](Cc1ccc(OP(=O)(O)O)cc1)C(=O)O [compound 1, Pyn-(L)-EEEEEpY] ({Acetyl(1-pyrenyl)}-EEEEE[pY]-OH)",half-life,[1],4.7 min
same,time to almost complete proteolysis,"[2]; 1 mg/mL proteinase K, 37 °C, neutral pH, 1 mM monomeric peptide, LC/MS",≤ 30 min
same,thalf of Pyn-(L)-EEEEEpY (1) in proteinase K digestion,"[2]; 1 mg/mL proteinase K, 37 °C, neutral pH, double-distilled water, 1 mM 1 alone or 500 μM 1 with 2 equiv of 2 or 4, sampled 5 min, 30 min, 2 h, 24 h, kinetic analysis of HPLC peak areas (LC/MS)",approximately 10 min
same,half-life at 1 mM,[2]; isolated enzyme proteinase k,10 min
same,time to complete dephosphorylation,[3],≤ 30 min
"O=C(O)CC[C@@H](NC(=O)Cc1ccc2ccc3cccc4ccc1c2c34)C(=O)N[C@H](CCC(=O)O)C(=O)N[C@H](CCC(=O)O)C(=O)N[C@H](CCC(=O)O)C(=O)N[C@H](CCC(=O)O)C(=O)N[C@H](Cc1ccc(OP(=O)(O)O)cc1)C(=O)O [compound 3, Pyn-(D)-eeeeepy] ({Acetyl(1-pyrenyl)}-[dE][dE][dE][dE][dE][d(pY)]-OH)",half-life,[1],9.6 min
same,time to complete dephosphorylation,[3],≤ 30 min
"NCCCC[C@H](NC(=O)[C@H](CCCCN)NC(=O)[C@H](CCCCN)NC(=O)[C@H](CCCCN)NC(=O)[C@H](CCCCN)NC(=O)[C@H](CCCCN)NC(=O)Cc1ccc2ccc3cccc4ccc1c2c34)C(=O)O [compound 4, Pyn-(L)-KKKKKK]",proteolysis of Pyn-(L)-KKKKKK (4) alone,"[2]; 1 mg/mL proteinase K, 37 °C, peptide alone, LC/MS (Figure S35B)",largely resistant to proteolysis
Pyn-(L)-EEEEEpY/Pyn-(D)-kkkkkk [1/2],cleavage slower than for Pyn-(L)-EEEEEpY (1) alone,[2],over 360 times
same,state of Pyn-(L)-EEEEEpY (1) under proteinase K for up to 24 h,[2],remained largely intact
same,thalf of Pyn-(L)-EEEEEpY (1) in proteinase K digestion,[2],> 3600 min
Pyn-(L)-EEEEEpY/Pyn-(L)-KKKKKK [1/4],increase in half-life compared to the L-peptide (1) alone,[2],287 fold
same,thalf of Pyn-(L)-EEEEEpY (1) in proteinase K digestion,[2],2872 min
